Experimental data: patent US20110152089A1, “HERBICIDAL COMPOSITIONS COMPRISING FLUFENACET” (Bayer CropScience AG, priority 2009, published 2011)

Columns and labels:
VIOAR [1] = assay: PE soil application vs incorporation into the soil, greenhouse (Table 1); format: in vivo, Viola arvensis; conditions: g of AS/ha: (A) 90, (B) 300, (C) 70, (A)+(B)+(C) 90 + 300 + 70, visual, about 3 weeks after application
Procedure: (§1) In the standard design of the test, seeds of various broad-leaved weed and weed grass biotypes (origins) were sown in a 8-13 cm diameter pot filled with natural soil of a standard field soil (loamy silt; non-sterile) and covered with a covering soil layer of about 1 cm. The pots were then cultivated in a greenhouse (12-16 h of light, temperature day 20-22° C., night 15-18° C.) until the time of application. The pots were treated on a laboratory track sprayer with spray liquors comprising the compositions according to the invention, mixtures of the prior art or components used individually. Application of the active compounds or active compound combinations formulated as WG, WP, EC or otherwise was carried out at the appropriate growth stages of the plants. The application rate for the spray application was 100-600 l of water/ha. After the treatment, the plants were returned to the greenhouses.
(§2) About 3 weeks after the application, the soil action or/and foliar action was assessed visually according to a scale of 0-100% in comparison to an untreated comparative group: 0%=no noticeable effect compared to the untreated comparative group; 100%=full effect compared to the untreated comparative group.
(§3) (notes: the term “seeds” also includes vegetative propagation forms such as, for example, rhizome pieces; abbreviations used: h light=hours of illumination, g of AS/ha=gram of active substance per hectare, l/ha=liter per hectare, S=sensitive, R=resistant) • 1. Pre-emergence action against weeds: seeds of various broad-leaved weed and weed grass biotypes (origins) were sown in a 8-13 cm diameter pot filled with natural soil of a standard field soil (loamy silt; non-sterile) and covered with a covering soil layer of about 1 cm. The pots were then cultivated in a greenhouse (12-16 h of light, temperature day 20-22° C., night 15-18° C.) until the time of application. The pots were treated at the BBCH stage 00-10 of the seeds/plants on a laboratory track sprayer with spray liquors comprising the compositions according to the invention, mixtures or components used individually, as WG, WP, EC or other formulations. The application rate for the spray application was 100-600 l of water/ha. After the treatment, the plants were returned to the greenhouses and, when required, treated with fertilizer and watered. • 2. Post-emergence action against weeds: seeds of various broad-leaved weed and weed grass biotypes (origins) were sown in a 8-13 cm diameter pot filled with natural soil of a standard field soil (loamy silt; non-sterile) and covered with a covering soil layer of about 1 cm. The pots were then cultivated in a greenhouse (12-16 h of light, temperature day 20-22° C., night 15-18° C.) until the time of application. […]

STEME = assay: as above; format: in vivo, Stellaria media; conditions: g of AS/ha: (A) 90, (B) 300, (C) 70, (A)+(B)+(C) 90 + 300 + 70, visual, about 3 weeks after application
Procedure: as §1, §2
(§4) (notes: the term “seeds” also includes vegetative propagation forms such as, for example, rhizome pieces; abbreviations used: h light=hours of illumination, g of AS/ha=gram of active substance per hectare, l/ha=liter per hectare, S=sensitive, R=resistant) • 1. Pre-emergence action against weeds: seeds of various broad-leaved weed and weed grass biotypes (origins) were sown in a 8-13 cm diameter pot filled with natural soil of a standard field soil (loamy silt; non-sterile) and covered with a covering soil layer of about 1 cm. The pots were then cultivated in a greenhouse (12-16 h of light, temperature day 20-22° C., night 15-18° C.) until the time of application. The pots were treated at the BBCH stage 00-10 of the seeds/plants on a laboratory track sprayer with spray liquors comprising the compositions according to the invention, mixtures or components used individually, as WG, WP, EC or other formulations. The application rate for the spray application was 100-600 l of water/ha. After the treatment, the plants were returned to the greenhouses and, when required, treated with fertilizer and watered. • 2. Post-emergence action against weeds: seeds of various broad-leaved weed and weed grass biotypes (origins) were sown in a 8-13 cm diameter pot filled with natural soil of a standard field soil (loamy silt; non-sterile) and covered with a covering soil layer of about 1 cm. The pots were then cultivated in a greenhouse (12-16 h of light, temperature day 20-22° C., night 15-18° C.) until the time of application. The pots were treated at various BBCH stages between 11-25 of the seeds/plants, i.e. generally between two to three weeks after the start of the cultivation, on a laboratory track sprayer with spray liquors comprising the compositions according to the invention, mixtures or components used individually, as WG, WP, EC or other formulations. The application rate for the spray application was 100-600 l of water/ha. After the treatment, the plants were returned to the greenhouses and, when required, treated with fertilizer and watered. • 3. Pre-emergence action against weeds with and without incorporation of active compound: seeds of various broad-leaved weed and weed grass biotypes (origins) were sown in a 8-13 cm diameter pot filled with natural soil of a standard field soil (loamy silt; non-sterile). […]

POAAN = assay: PO application, greenhouse (Table 2); format: in vivo, Poa annua; conditions: g of AS/ha: (A) 120, (B) 1200, (C) 140, (A)+(B)+(C) 120 + 1200 + 140, visual, about 3 weeks after application
Procedure: as §1, §2
(notes: the term “seeds” also includes vegetative propagation forms such as, for example, rhizome pieces; abbreviations used: h light=hours of illumination, g of AS/ha=gram of active substance per hectare, l/ha=liter per hectare, S=sensitive, R=resistant) • 1. Pre-emergence action against weeds: seeds of various broad-leaved weed and weed grass biotypes (origins) were sown in a 8-13 cm diameter pot filled with natural soil of a standard field soil (loamy silt; non-sterile) and covered with a covering soil layer of about 1 cm. The pots were then cultivated in a greenhouse (12-16 h of light, temperature day 20-22° C., night 15-18° C.) until the time of application. […]

LOLPE = assay: PE application vs pre-sowing application, greenhouse (Table 3); format: in vivo, Lolium perenne; conditions: g of AS/ha: (A) 90, (B) 300, (C) 140, (A)+(B)+(C) 90 + 300 + 140
Procedure: as §1, §2, §3

HORVS [2] = assay: PE application vs pre-sowing application, crop selectivity, greenhouse (Table 3); format: in vivo, Hordeum vulgare, summer barley; conditions: g of AS/ha: (A) 90, (B) 300, (C) 140, (A)+(B)+(C) 90 + 300 + 140
Procedure: as §1, §2, §4

MATCH [3] = assay: PE application with different irrigation, greenhouse (Table 4); format: in vivo, Matricaria chamomilla; conditions: g of AS/ha: (A) 90, (B) 300, (C) 140, (A)+(B)+(C) 90 + 300 + 140
Procedure: as §1, §2, §4

AVEFA = assay: as above; format: in vivo, Avena fatua; conditions: g of AS/ha: (A) 90, (B) 300, (C) 140, (A)+(B)+(C) 90 + 300 + 140
Procedure: as §1, §2, §4

HORVS [4] = assay: PE application with different irrigation, crop selectivity, greenhouse (Table 4); format: in vivo, Hordeum vulgare, summer barley; conditions: g of AS/ha: (A) 90, (B) 300, (C) 140, (A)+(B)+(C) 90 + 300 + 140
Procedure: as §1, §2, §4

VIOAR [5] = assay: Activity with different soil types, greenhouse (Table 5); format: in vivo, Viola arvensis; conditions: g of AS/ha: (A) 90, (B) 300, (C) 140, (A)+(B)+(C) 90 + 300 + 140; for activity VIOAR IU soil: IU soil (loamy silt standard field soil); for activity V18 VIOAR IU/EC73 soil: IU/EC73 soil (heavy soil, higher organic substance)
Procedure: as §1, §2, §4

LOLSS = assay: Resistant biotypes, PE application, greenhouse (Table 6); format: in vivo, Lolium species; conditions: g of AS/ha: (A) 90, (B) 300, (C) 140, (A)+(B)+(C) 120 + 600 + 140, iodosulfuron 10; for activity LOLSS resistant: resistant (EMR) biotype; for activity LOLSS sensitive: sensitive biotype
Procedure: as §1, §2, §3

MATCH [6] = assay: Different sowing depths, PE application, greenhouse (Table 7); format: in vivo, Matricaria chamomilla; conditions: for activity MATCH 5 mm: sowing depth 5 mm; for activity MATCH 20 mm: sowing depth 20 mm
Procedure: as §1, §2, §4

HORVS [7] = assay: Different sowing depths, PE application, crop selectivity, greenhouse (Table 7); format: in vivo, Hordeum vulgare, summer barley; conditions: for activity HORVS 5 mm (crop plant): sowing depth 5 mm; for activity HORVS 20 mm (crop plant): sowing depth 20 mm
Procedure: as §1, §2, §4

HORVS [8] = assay: Different soil pH, PE application, crop selectivity, greenhouse (Table 8); format: in vivo, Hordeum vulgare, summer barley; conditions: for activity HORVS pH 7.4 (crop plant): soil pH 7.4, g of AS/ha: (A) 90, (B) 300, (C) 140, (A)+(B)+(C) 90 + 300 + 140; for activity HORVS pH 8.4 (crop plant): soil pH 8.4, g of AS/ha: (A) 90, (B) 300, (C) 140, (A)+(B)+(C) 90 + 300 + 140
Procedure: as §1, §2, §4

TRZAW = assay: as above; format: in vivo, Triticum aestivum, winter wheat; conditions: for activity TRZAW pH 7.4 (crop plant): soil pH 7.4, g of AS/ha: (A) 90, (B) 300, (C) 140, (A)+(B)+(C) 90 + 300 + 140; for activity TRZAW pH 8.4 (crop plant): soil pH 8.4, g of AS/ha: (A) 90, (B) 300, (C) 140, (A)+(B)+(C) 90 + 300 + 140
Procedure: as §1, §2, §4

MATCH [9] = assay: Different soil pH, PE application, greenhouse (Table 8); format: in vivo, Matricaria chamomilla; conditions: for activity MATCH pH 7.4: soil pH 7.4, g of AS/ha: (A) 90, (B) 300, (C) 140, (A)+(B)+(C) 90 + 300 + 140; for activity MATCH pH 8.4: soil pH 8.4, g of AS/ha: (A) 90, (B) 300, (C) 140, (A)+(B)+(C) 90 + 300 + 140
Procedure: as §1, §2, §4

[10] = application 7 days prior to sowing
[11] = g of AS/ha: (A) 90, (B) 300, (C) 140, (A)+(B)+(C) 90 + 300 + 140
[12] = g of AS/ha: (A) 90, (B) 300, (C) 140, (A)+(B)+(C) 90 + 300 + 140, listed as trifluralin

Compound | activity VIOAR (VIOAR [1]; PE application) [%] | activity VIOAR (VIOAR [1]; incorporation into the soil) [%] | activity STEME (STEME; PE application) [%] | activity STEME (STEME; incorporation into the soil) [%] | activity POAAN (POAAN) [%] | activity LOLPE (LOLPE; PE application) [%] | activity LOLPE (LOLPE; [10]) [%] | activity HORVS (crop plant) (HORVS [2]; PE application) [%] | activity HORVS (crop plant) (HORVS [2]; [10]) [%] | activity MATCH (MATCH [3]; irrigation from above) [%] | activity MATCH (MATCH [3]; irrigation from below) [%] | activity AVEFA (AVEFA; irrigation from above) [%] | activity AVEFA (AVEFA; irrigation from below) [%] | activity HORVS (crop plant) (HORVS [4]; irrigation from above) [%] | activity HORVS (crop plant) (HORVS [4]; irrigation from below) [%] | activity VIOAR IU soil (VIOAR [5]) [%] | activity V18 VIOAR IU/EC73 soil (VIOAR [5]) [%] | activity LOLSS resistant (LOLSS) [%] | activity LOLSS sensitive (LOLSS) [%] | activity MATCH 5 mm (MATCH [6]; [11]) [%] | other results
CCCN(CCC)c1c([N+](=O)[O-])cc(C(F)(F)F)cc1[N+](=O)[O-] [(B) trifluralin, 2,6-dinitro-N,N-dipropyl-4-(trifluoromethyl)benzenamine] | 50 | 0 | 10 | 70 | 40 | 90 | 0 | 0 | 20 | 0 | 40 | 25 | 38 | 90 | 60 | 77 | 0 | 83 | 98 | 0 | activity MATCH 5 mm (MATCH [6]; [12]): 100%; activity MATCH 20 mm (MATCH [6]; [11]): 30%; activity MATCH 20 mm (MATCH [6]; [12]): 70%; activity HORVS 5 mm (crop plant) (HORVS [7]; [11]): 25%; activity HORVS 5 mm (crop plant) (HORVS [7]; [12]): 70%; activity HORVS 20 mm (crop plant) (HORVS [7]; [11]): 20%; activity HORVS 20 mm (crop plant) (HORVS [7]; [12]): 30%; activity HORVS pH 7.4 (crop plant) (HORVS [8]): 20%; activity HORVS pH 8.4 (crop plant) (HORVS [8]): 10%; activity TRZAW pH 7.4 (crop plant) (TRZAW): 0%; activity TRZAW pH 8.4 (crop plant) (TRZAW): 0%; activity MATCH pH 7.4 (MATCH [9]): 0%; activity MATCH pH 8.4 (MATCH [9]): 0%
CSc1nnc(C(C)(C)C)c(=O)n1N [(C) metribuzin, 4-amino-6-(1,1-dimethyl-ethyl)-3-(methylthio)-1,2,4-triazin-5-(4H)-one] | 0 | 10 | 75 | 0 | 79 | 20 | 80 | 30 | 20 | 0 | 60 | 30 | 30 | 80 | 10 | 50 | 0 | 70 | 70 | 100 | activity MATCH 20 mm (MATCH [6]; [11]): 70%; activity HORVS 5 mm (crop plant) (HORVS [7]; [11]): 70%; activity HORVS 20 mm (crop plant) (HORVS [7]; [11]): 30%; activity HORVS pH 7.4 (crop plant) (HORVS [8]): 40%; activity HORVS pH 8.4 (crop plant) (HORVS [8]): 50%; activity TRZAW pH 7.4 (crop plant) (TRZAW): 70%; activity TRZAW pH 8.4 (crop plant) (TRZAW): 80%; activity MATCH pH 7.4 (MATCH [9]): 100%; activity MATCH pH 8.4 (MATCH [9]): 98%
